Data on two compounds can be found in ChEMBL document CHEMBL6134877, “Innovative Approaches in Psychedelics, AI, and Communication: A Multi-Domain Perspective” (ACS Med Chem Lett, 2025).

Structures are written as SMILES.

What all share (format): ADME, organism-based
Series [1] in a line: Half life in brain of male C57BL6 mouse at 3 mg/kg, po.
Series [2] in a line: AUClast in plasma of male C57BL6 mouse at 3 mg/kg, po.
A short description of series [3]: Tmax in brain of male C57BL6 mouse at 3 mg/kg, po.
Series [4] in a line: AUClast in brain of male C57BL6 mouse at 3 mg/kg, po.
Series [5] is described as follows: AUC (infinity) in brain of male C57BL6 mouse at 3 mg/kg, po.
Series [6] in a line: Half life in plasma of male C57BL6 mouse at 3 mg/kg, po.
A short description of series [7]: Cmax in plasma of male C57BL6 mouse at 3 mg/kg, po.
Series [8] is described as follows: AUC (infinity) in plasma of male C57BL6 mouse at 3 mg/kg, po.
Series [9] is described as follows: Cmax in brain of male C57BL6 mouse at 3 mg/kg, po.
Series [10] can be described thus: Tmax in plasma of male C57BL6 mouse at 3 mg/kg, po.

What is called half-life is how long it takes for the measured level to halve. As a reminder, the AUC(0-t) is exposure summed from dosing to a finite time, without extrapolation to infinity. Read a high AUC(0-t) as more exposure. By Tmax is commonly meant the time at which the peak concentration occurs. By AUC(0-inf) is commonly meant the area under the concentration-time curve extrapolated to infinity. A high value points to more exposure. One may read the Cmax as the peak of the concentration-time curve. Consider `CN(C)CCc1c[nH]c2cccc(O)c12` [PSILOCIN], for which the half-life in [1] is 4.47 h; in [6], 1.7 h. The AUC(0-t) in series [2] was determined as 1060 ng·h/mL; in series [4] it was 3600 ng·h/mL. In addition, in series [3], the Tmax was determined as 0.5 h. Moreover, the figures for the AUC(0-inf) in [5] and in series [8] were 4420 ng·h/mL and 1140 ng·h/mL, respectively. Moreover, the peak concentration (Cmax) in series [7] worked out at 878 ng/mL; in [9], 1340 ng/mL.
Turning to `CCCOc1cc(CCN)c(OC)cc1Br`, the half-life was 1.29 h in series [1] and 1.44 h in [6]. The AUC(0-t) in series [2] turned out to be 284 ng·h/mL; in series [4], 6480 ng·h/mL. Further, the Tmax was 1 h in series [3] and 0.5 h in [10]. Besides, the AUC(0-inf) was determined as 6680 ng·h/mL in series [5] and 291 ng·h/mL in series [8]. The Cmax in [7] was 130 ng/mL; in [9] it was 1850 ng/mL.
